Reference: patent publication US20170035845A1, “Compositions and Methods for Inhibiting Pro-Inflammatory Cytokine Gene Expression” (The Regents of the University of California, priority 2015, published 2017)

What was measured:
[1] = system: primary human monocytes; test: Cytokine secretion ELISA, LPS-stimulated primary human monocytes; type: cell-based; settings: LPS 20 ng/ml, 4 hours, RTD-1 10 μg/ml
Method: THP-1 monocytes (ATCC, Manassas, Va.) were cultured in RPMI 1640+10% FBS and penicillin/streptomycin (P/S). THP-1 Dual cells (Invivogen, San Diego, Calif.) which express the NF-κB reporter, secreted embryonic alkaline phosphatase (SEAP), were grown in RPMI 1640+10% HI-FBS and antibiotics. THP-1 cell differentiation was induced by treatment of cells (˜3.3×10^5 cells/ml) with 100 nM PMA and cultured for 2 days. HEK-Blue™ hTLR9 cells (Invivogen) were grown in DMEM medium containing 10% HI-FBS, P/S and normocin. Cells were cultured at 37° C. in 5% CO2. Cytokine assays. PMA-differentiated THP-1 cells (˜8×10^5 cells) cultured in 6-well plates were washed twice with complete medium and grown in fresh medium containing 1% FBS for 24 hours. Cells were washed twice with fresh medium and incubated for 2 hours prior to further manipulation. Cells were stimulated with 100 ng/ml LPS in the presence or absence of 10 μg/ml RTD-1 or vehicle (0.01% acetic acid) for 2 hours. In some experiments, cells were first incubated for 1 hour with 10 μg/ml of marimastat or vehicle (DMSO), after which LPS and/or RTD-1 were added and incubated for 2 hours as above. Peripheral blood CD14+ monocytes (Lonza, Walkersville, Md.) were thawed, rinsed with RPMI 1640 containing 10% HI FBS, P/S and normocin and then resuspended in RPMI 1640 containing 1% HI FBS plus antibiotics as above (10^6 cells/nil) for 2 hours. The cells were then stimulated for 4 hours as described in the legend. Medium was collected, clarified by centrifugation first at 250×g for 8 minutes and then at 5000×g for 5 minutes. TNF-α, IL-1β and IL-8 were quantified by ELISA (Life Technologies, Carlsbad, Calif.).

[2] = system: THP-1 cells; test: Phospho-MAPK phosphoprotein antibody array, THP-1 cells; type: cell-based, human
Method: Differentiated THP-1 cells (˜8×10^5 cells/2.5 ml medium) were starved in complete medium containing […] for 1 day as above, and fresh 2.5 ml RPMI 1640+1% FBS+P/S was added for 2 hours. For experiments with fresh monocytes, cells (>80% CD14+) were resuspended (˜10^6 cells/nil) in monocyte attachment medium (Promocell, Heidelberg, Germany) in wells of a 12 well plate for 2 hours at 37° C. in 5% CO2. The cells were then washed two times with RPMI medium containing 1% HI FBS and suspended overnight in RPMI medium containing 1% HI FBS. Cells were stimulated with agonists with or without RTD-1 (SEQ ID NO. 1) as described in the figure legends after which cells were washed with PBS and extracts were prepared in cell lysis buffer+1 mM PMSF. Protein content was determined using the BCA method (BioRad, San Diego, Calif.) and extracts resolved on SDS-tricine gels and transferred to nitrocellulose membrane. The membranes were probed with the indicated antibodies and developed using anti-mouse or anti-rabbit HRP conjugated secondary antibodies and detected by chemiluminescence. A phosphoprotein antibody array (Phospho-MAPK™; R&D systems Minneapolis, Minn.) was used to analyze activation of phosphoprotein kinases. Differentiated THP-1 cells (1.6×10^6 cells) were treated with 100 ng/ml LPS, 10 μg/ml RTD-1 (SEQ ID NO. 1), 100 ng/ml LPS+10 μg/ml RTD-1, or vehicle for 30 minutes. Arrays were probed with 200 μg of cell extract protein and chemiluminescence of spots from arrays or bands from western blotting was quantified using NIH ImageJ software, background subtracted, normalized and plotted.

[3] = system: THP-1 cells; test: Real time quantitative PCR of cytokine mRNA, LPS-stimulated THP-1 cells; type: cell-based, human
Method: Differentiated THP-1 cells were treated with LPS and RTD-1 for 2 hours as above, washed with PBS and RNA was isolated using an RNA mini kit (Zymo Research, Irvine, Calif.) or with RNeasy mini kit (Qiagen, Valencia, Calif.). RNA integrity was confirmed on agarose gels and RNA samples with A260/280 and A260/230 ratios ≧1.7 were used to generate cDNA. Briefly, 400 ng RNA was incubated with genomic DNA (gDNA) elimination (GE) buffer for 5 minutes at […]. and reverse transcribed using the RT^2 first strand synthesis kit (Qiagen). Custom PCR arrays (SA Biosciences, Frederick, Md.) containing human genes of interest and controls (for reverse transcriptase and PCR efficiency, RTC and PPC respectively) were used for simultaneous real time PCR analysis. Master mix containing cDNA and RT^2 SYBR Green™ was added to array wells. PCR cycling parameters were: 1 cycle 10 minutes at 95° C., 40 cycles of 15 seconds at 95° C., 1 minute at 60° C. on a BioRad C1000 Thermal Cycler equipped with a CFX96 real time system. Melting curve analysis confirmed a single amplicon with CT PPC=20±2 and ACT (RTC-PPC)<5 for all samples. The ACTB gene was used for normalization of gene expression and fold stimulation (compared to untreated cells) was calculated using the ΔΔCT method. Absence of gDNA in cDNA samples (CT>35) was confirmed using a human gDNA primer (SA Biosciences).

[4] = LPS 100 ng/ml + RTD-1 10 μg/ml, 30 minutes
[5] = LPS 100 ng/ml, RTD-1 10 μg/ml, 2 hours

In the case of “RTD-1: rhesus theta-defensin 1, macrocyclic tri-disulfide θ-defensin peptide, SEQ ID NO. 1, synthetic (cyclo(GFCRCLCRRGVCRCICTR); disulfide (positions not given here); not fully specified (bridges); also: three disulfides, places not given here; listed as Macaca mulatta)”, the “suppression of secretion of IL-1β” value [1] was > 90%, the “suppression of secretion of IL-8” value [1] was > 90% and the “suppression of secretion of TNF-α” value [1] was > 90%. For the same substance, the “LPS-induced phosphorylation of CREB” value [2, 4] was “to baseline levels”, the “LPS-induced phosphorylation of ERK2” value [2, 4] was “to baseline levels” and the “LPS-induced phosphorylation of H5P27” value [2, 4] was “to baseline levels”. The “LPS-induced phosphorylation of JNK2” value [2, 4] was “to baseline levels”, the “LPS-induced phosphorylation of p38α” value [2, 4] was “to baseline levels” and the “LPS-induced phosphorylation of p38γ” value [2, 4] was “to baseline levels”. The “phosphorylation of CREB, ERK2, H5P27, JNK2, p38α and p38γ” value ([2]; RTD-1 alone) was “did not suppress”, the “phosphorylation of Akt1” value ([2]; RTD-1 alone or in combination with LPS) was “selectively stimulated” and the “baseline phosphorylation of other kinase targets” value ([2]; RTD-1 alone, otherwise untreated cells) was “did not increase”. The “LPS-induced mRNA expression of CCL3” value [3, 5] was “markedly inhibited”, the “LPS-induced mRNA expression of CCL4” value [3, 5] was “markedly inhibited” and the “LPS-induced mRNA expression of IL-1β” value [3, 5] was “markedly inhibited”. The “LPS-induced mRNA expression of IL-8” value [3, 5] was “markedly inhibited”, the “LPS-induced mRNA expression of TNF-α” value [3, 5] was “markedly inhibited” and the “expression of GAPDH” value ([3]; addition of RTD-1) was “no effect”. The “cytokine mRNA expression” value ([3]; peptide alone, no LPS) was “no effect”.
